Where “and” joins values, the source holds several entries; their conditions need not be identical. Equal values may be shown once. Inconclusive results and toxic doses are left out. The calls were made as follows: active = survival T/C of 150% or more; inactive = T/C below 125% in these data.
System: B6C3F1 mice, B16 melanoma ip, median survival T/C
Test: NCI In Vivo Anticancer Drug Screen. Data for tumor model B16 Melanoma (intraperitoneal) in B6C3F1 mice
Conditions: endpoint: median survival time, higher = longer survival
Summary of the method: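 Tumor-bearing mice received test compound; a separate group got vehicle only. Survival was then compared, with results reported as treated over control.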

[1] = dose: 12.5 mg/kg/injection, schedule: Q01DX009 (ip), vehicle: Klucel (hydroxypropylcellulose) (HPC)
[2] = dose: 25.0 mg/kg/injection, schedule: Q01DX009 (ip), vehicle: Klucel (hydroxypropylcellulose) (HPC)
[3] = dose: 50.0 mg/kg/injection, schedule: Q01DX009 (ip), vehicle: Klucel (hydroxypropylcellulose) (HPC)
[4] = dose: 100.0 mg/kg/injection, schedule: Q01DX009 (ip), vehicle: Klucel (hydroxypropylcellulose) (HPC)
[5] = dose: 200.0 mg/kg/injection, schedule: Q01DX009 (ip), vehicle: Klucel (hydroxypropylcellulose) (HPC)
[6] = dose: 400.0 mg/kg/injection, schedule: Q01DX009 (ip), vehicle: Klucel (hydroxypropylcellulose) (HPC)
[7] = dose: 6.25 mg/kg/injection, schedule: Q01DX009 (ip), vehicle: Klucel (hydroxypropylcellulose) (HPC)
[8] = dose: 3.12 mg/kg/injection, schedule: Q01DX009 (ip), vehicle: saline
[9] = dose: 6.25 mg/kg/injection, schedule: Q01DX009 (ip), vehicle: saline
[10] = dose: 12.5 mg/kg/injection, schedule: Q01DX009 (ip), vehicle: saline
[11] = dose: 25.0 mg/kg/injection, schedule: Q01DX009 (ip), vehicle: saline
[12] = dose: 50.0 mg/kg/injection, schedule: Q01DX009 (ip), vehicle: saline
[13] = dose: 100.0 mg/kg/injection, schedule: Q01DX009 (ip), vehicle: saline
[14] = dose: 100.0 mg/kg/injection, schedule: Q01DX009 (ip), vehicle: saline with Tween-80
[15] = dose: 200.0 mg/kg/injection, schedule: Q01DX009 (ip), vehicle: saline with Tween-80
[16] = dose: 200.0 mg/kg/injection, schedule: Q01DX009 (ip), vehicle: saline
[17] = dose: 400.0 mg/kg/injection, schedule: Q01DX009 (ip), vehicle: saline
[18] = dose: 1.56 mg/kg/injection, schedule: Q01DX009 (ip), vehicle: saline with Tween-80
[19] = dose: 6.25 mg/kg/injection, schedule: Q01DX009 (ip), vehicle: saline with Tween-80

Measured: T/C

O=c1ssc(=Nc2ccccc2)n1-c1ccccc1
inactive: [1] 98 % of control | [2] 101 % of control | [3] 96 % of control | [4] 97 % of control | [5] 92 % of control | [6] 96 % of control

CN(C)CCCOc1nc2c(c(=O)n(C)c(=O)n2C)n1C (tested in a mixture with another compound)
inactive: [7] 90 % of control | [1] 111 % of control | [2] 102 % of control | [3] 107 % of control

CCOc1ccc(-c2nc3ccc(-c4nc5ccc(N6CCN(C)CC6)cc5[nH]4)cc3[nH]2)cc1
inactive: dose: 1.56 mg/kg/injection, schedule: Q01DX009 (ip), vehicle: saline 113 % of control | [8] 114 % of control | [9] 110 % of control | [10] 110 % of control

Nc1nc2ncc(CNc3ccc(C(=O)NC(CCC(=O)O)C(=O)O)cc3)nc2c(=O)[nH]1 (stereo not given)
inactive: [9] 96 % of control | [10] 91 % of control | [11] 108 % of control | [12] 96 % of control | [13] 101 % of control

CCOc1ccc(C(C)c2cc3c(cc2OC)OCO3)cc1 (stereo not given)
inactive: dose: 25.0 mg/kg/injection, schedule: Q01DX009 (ip), vehicle: distilled water + Tween-80 123 % of control | dose: 50.0 mg/kg/injection, schedule: Q01DX009 (ip), vehicle: distilled water + Tween-80 107 % of control

NCCCCC(NC(=O)OCC1c2ccccc2-c2ccccc21)C(=O)O (stereo not given)
inactive: [2] 92 % of control | [3] 101 % of control | [4] 97 % of control and 100 % of control

CCCCS(=N)(=O)CC[C@H](N)C(=O)O (stereo not given in full)
inactive: dose: 445.0 mg/kg/injection, schedule: Q04HX012 (ip), vehicle: water 104 % of control | dose: 890.0 mg/kg/injection, schedule: Q04HX012 (ip), vehicle: water 107 % of control

CCc1nc(N)nc(N)c1-c1ccc(Cl)c(Cl)c1.[Cl][Pd][Cl]
inactive: [8] 114 % of control

O=C1C(Cl)=C(Cl)C(=O)C2=C1C1c3ccccc3C2c2ccccc21
inactive: [14] 94 % of control | [15] 86 % of control

CSC1SCC2C(=O)N(C)C(C(C)C)C(=O)OCC(NC(=O)c3cnc4ccccc4n3)C(=O)NC(C)C(=O)N(C)C1C(=O)N(C)C(C(C)C)C(=O)OCC(NC(=O)c1cnc3ccccc3n1)C(=O)NC(C)C(=O)N2C (stereo not given)
active: dose: 30.0 micrograms/kg/injection, schedule: Q01DX009 (ip), vehicle: saline 176 % of control | dose: 32.0 micrograms/kg/injection, schedule: Q01DX009 (ip), vehicle: saline 176 % of control | dose: 60.0 micrograms/kg/injection, schedule: Q01DX009 (ip), vehicle: saline 172 % of control | dose: 64.0 micrograms/kg/injection, schedule: Q01DX009 (ip), vehicle: saline 176 % of control | dose: 120.0 micrograms/kg/injection, schedule: Q01DX009 (ip), vehicle: saline 209 % of control | dose: 128.0 micrograms/kg/injection, schedule: Q01DX009 (ip), vehicle: saline 187 % of control | dose: 240.0 micrograms/kg/injection, schedule: Q01DX009 (ip), vehicle: saline 181 % of control | dose: 480.0 micrograms/kg/injection, schedule: Q01DX009 (ip), vehicle: saline with Tween-80 170 % of control
inactive: dose: 15.0 micrograms/kg/injection, schedule: Q01DX009 (ip), vehicle: saline with Tween-80 106 % of control | dose: 60.0 micrograms/kg/injection, schedule: Q01DX009 (ip), vehicle: saline with Tween-80 121 % of control

CCCCCCCCCCCCCCCCCC1=NC(C)CC(C)(C)O1 (stereo not given)
inactive: [12] 96 % of control | [13] 94 % of control | [16] 94 % of control

OCCCN1CCCCC1CO (stereo not given)
inactive: [10] 94 % of control | [11] 106 % of control | [12] 99 % of control | [13] 105 % of control | [16] 101 % of control | [17] 111 % of control and 101 % of control | dose: 800.0 mg/kg/injection, schedule: Q01DX009 (ip), vehicle: saline 112 % of control

N=C(N)SCc1c2ccccc2c(CSC(=N)N)c2ccccc12
active: [9] 156 % of control | [10] 181 % of control | [11] 228 % of control | [12] 320 % of control

N[C@@H](Cc1c[nH]c2ccccc12)C(=O)Nc1nncs1
inactive: dose: 50.0 mg/kg/injection, schedule: Q01DX009 (ip), vehicle: suspension in saline 94 % of control | dose: 100.0 mg/kg/injection, schedule: Q01DX009 (ip), vehicle: suspension in saline 95 % of control | dose: 200.0 mg/kg/injection, schedule: Q01DX009 (ip), vehicle: suspension in saline 103 % of control | dose: 400.0 mg/kg/injection, schedule: Q01DX009 (ip), vehicle: suspension in saline 106 % of control | dose: 800.0 mg/kg/injection, schedule: Q01DX009 (ip), vehicle: suspension in saline 109 % of control

OC(c1ccccc1)C(O)C(c1ccccc1)N1CCCCC1 (stereo not given)
inactive: [14] 100 % of control | [15] 102 % of control | dose: 400.0 mg/kg/injection, schedule: Q01DX009 (ip), vehicle: saline with Tween-80 111 % of control

OCC1OC(n2cnc3c(NO)ncnc32)C(O)C1O (stereo not given)
inactive: [1] 101 % of control and 105 % of control | [2] 93 % of control and 100 % of control | [3] 96 % of control and 98 % of control | [4] 97 % of control and 101 % of control | [5] 91 % of control and 95 % of control | [6] 86 % of control and 87 % of control

CC(C)CC(NC(=O)C(F)(F)F)C(=O)O (stereo not given)
inactive: [11] 89 % of control | [12] 91 % of control

O=C1N=C(Oc2ccccc2)SC1=O
inactive: dose: 12.5 mg/kg/injection, schedule: Q01DX009 (ip), vehicle: saline with Tween-80 110 % of control | dose: 25.0 mg/kg/injection, schedule: Q01DX009 (ip), vehicle: saline with Tween-80 98 % of control | dose: 50.0 mg/kg/injection, schedule: Q01DX009 (ip), vehicle: saline with Tween-80 103 % of control | [14] 92 % of control

COc1cc2cc(c1Cl)N1CCC(C)(O)C(=O)NC(C)C(=O)OC(CC1=O)C1(C)OC1C(C)C1CC(O)(NC(=O)O1)C(OC)/C=C\C=C(\C)C2OC (stereo not given)
active: dose: 8.0 micrograms/kg/injection, schedule: Q01DX009 (ip), vehicle: distilled water + alcohol 160 % of control | dose: 16.0 micrograms/kg/injection, schedule: Q01DX009 (ip), vehicle: distilled water + alcohol 162 % of control | dose: 32.0 micrograms/kg/injection, schedule: Q01DX009 (ip), vehicle: distilled water + alcohol 178 % of control

CN(C)CSCN(C)C
inactive: [18] 97 % of control | dose: 3.13 mg/kg/injection, schedule: Q01DX009 (ip), vehicle: saline with Tween-80 89 % of control | [19] 101 % of control

O=C(NC(Cc1ccc(I)cc1)C(=O)O)c1cccc(Br)c1 (stereo not given)
inactive: [2] 100 % of control | [3] 104 % of control | [4] 105 % of control | [5] 103 % of control | [6] 89 % of control

[Cl][Hg][CH]1CCC2OC1CC[CH]2[Hg][Cl] (stereo not given)
inactive: [18] 97 % of control | dose: 3.12 mg/kg/injection, schedule: Q01DX009 (ip), vehicle: saline with Tween-80 97 % of control | [19] 101 % of control

CC(C)(C#CC(C)(C)OC(=O)Nc1ccccc1)OC(=O)Nc1ccccc1
inactive: [13] 106 % of control | [16] 100 % of control | [17] 98 % of control

CSCCC(NC(=O)CNC(=O)OCc1ccccc1)C(=O)O (stereo not given)
inactive: dose: 3.0 mg/kg/injection, schedule: Q01DX009 (ip), vehicle: Klucel (hydroxypropylcellulose) (HPC) 101 % of control and 103 % of control | dose: 6.0 mg/kg/injection, schedule: Q01DX009 (ip), vehicle: Klucel (hydroxypropylcellulose) (HPC) 95 % of control | [7] 93 % of control | dose: 12.0 mg/kg/injection, schedule: Q01DX009 (ip), vehicle: Klucel (hydroxypropylcellulose) (HPC) 101 % of control and 103 % of control | [1] 97 % of control | [2] 93 % of control and 94 % of control | [3] 95 % of control and 99 % of control and 102 % of control | [4] 95 % of control | [5] 101 % of control | [6] 95 % of control

CC(=O)OCC1C(=O)OCC1C(=O)N1Cc2cc3ccccc3nc2C1 (stereo not given)
inactive: dose: 8.0 mg/kg/injection, schedule: Q01DX009 (ip), vehicle: saline with Tween-80 115 % of control | dose: 16.0 mg/kg/injection, schedule: Q01DX009 (ip), vehicle: saline with Tween-80 95 % of control | dose: 32.0 mg/kg/injection, schedule: Q01DX009 (ip), vehicle: saline with Tween-80 100 % of control | dose: 64.0 mg/kg/injection, schedule: Q01DX009 (ip), vehicle: saline with Tween-80 91 % of control | dose: 128.0 mg/kg/injection, schedule: Q01DX009 (ip), vehicle: saline with Tween-80 88 % of control

— PubChem BioAssay AID200 (DTP/NCI, 2004)
